Ends that are not written are not given here.
Columns and labels:
L132 cells = experiment: cDNA microarray analysis of gene expression after FKBP-L antisense; type: cell-based; settings: 8 h after exposure, vs lipofectin only
Method: Total RNA was isolated from L132 cells, 8 h after exposure to FKBP-L antisense (FKBP-L antisense: 5′ ATG GCC AGG CTC CCG CTC 3′) (SEQ ID NO: 40) or lipofectin only as a control. Poly A+mRNA was extracted from total RNA samples using the Qiagen Oligotex kit (Qiagen, UK), according to the manufacturer's instructions. These mRNA samples (800 ng per sample) were sent to Incyte Genomics, USA where a UniGEM 2.0 microarray analysis was conducted.
Incyte's Lifearray chips enable the interrogation of up to 10,000 genes simultaneously, resulting in the comparison of gene expression levels in two different samples. Briefly, a standard reverse transcription reaction was carried out to convert both mRNA samples to cyanine-dye-labelled cDNA. mRNA from L132 cells treated with FKBP-L antisense oligonucleotides after 8 h was used to generate a Cyanine 3 (green) labelled probe and mRNA from L132 cells treated with lipofectin only after 8 hours was used to produce a Cyanine 5 (red) labelled probe. The two fluorescent probe samples were simultaneously applied to a single microarray chip containing numerous cDNA probes immobilised on a solid support in specific locations, where they competitively reacted with the arrayed cDNA molecules. Following incubation, the microarray was rinsed in a series of baths to ensure the removal of any unhybridised sample. The microarray was then captured as an image that was acquired using a scanner for fluorescent signal detection. This scanner generated data on the intensity of each spot by excitation of the fluorochromes on the array. Each element of the chip was scanned for the Cy3 (green) and then the Cy5 (red) fluorescent label to create electronic images for both dye channels. The final array images were analysed using the Incyte GEMTools software package.

rat aortic ring = type: cell-based, Male Wistar rats
Method: Male Wistar rats were euthanised and the thoracic aorta was aseptically removed and sectioned into 1 cm thick rings. The rings were washed ten times in sterile medium to remove any bacteria and embedded into Matrigel on 24 well plates. The wells were supplemented with 2 ml of medium and increasing concentrations of full-length His-tagged recombinant FKBP-L protein (SEQ ID 1). The plate was incubated for 8 days and post incubation the Matrigel and rings were fixed in 4% PBS buffered paraformaldehyde and stored in PBS. The extent of vessel development was blindly assessed microscopically by an independent investigator and quantified using a calibrated eyepiece graticule (1 mm/100 μm graduation) at 20× magnification (Olympus BX 50). The extent of vessel length, maximum vessel length and number of vessels in each field of view was measured and compared to time matched sham controls and the percent (%) inhibition calculated. Male Wistar rats were euthanised and the thoracic aorta was aseptically removed and sectioned into 1 cm thick rings. The rings were washed ten times in sterile medium to remove any bacteria and embedded into Matrigel on 24 well plates. The wells were supplemented with 2 ml of medium and increasing concentrations of FKBP-L 24mer (SEQ ID NO: 10) and FKBP-L 1-57mer (SEQ ID NO: 6) and recombinant FKBP-L (SEQ ID NO:1). The plate was blindly assessed by an independent investigator and quantified using a calibrated eyepiece graticule (1 mm/100 μm graduation) at 20× magnification (Olympus BX 50). The extent of vessel length, maximum vessel length and number of vessels in each field of view was measured and compared to time matched sham controls and the % inhibition calculated. In order to determine whether the FKBP-L 24mer exerted a permanent or static effect on endothelial cell sprouting the rat aortic ring assay was used. Male Wistar rats were euthanised and the thoracic aorta was aseptically removed and sectioned into 1 cm thick rings. The rings were washed ten times in sterile medium to remove any bacteria and embedded into Matrigel on 24 well plates. The wells were supplemented with 2 ml of medium. The plates were incubated for up to 15 days. Each day the Matrigel rings were photographed and returned to their incubator. Two further experiments were carried out: (A) addition of FKBP-L 24mer to the medium after the vessels had grown for seven days; and (B) addition of FKBP-L 24mer to the medium at the initial embedding stage, with subsequent removal after seven days and replacement with fresh medium for a further seven days. The extent of vessel development was quantified using a calibrated eyepiece graticule (1 mm/100 μm graduation) at 20× magnification (Olympus BX 50), and measured electronically using Lucia imaging software. Vessel length was measured and compared to time matched sham controls and the percent (%) inhibition calculated.

HMEC-1 [1] = experiment: in vitro migration assay (wound closure / wound scrape), recombinant protein or peptides added to medium; type: cell-based, Human; settings: wound scrape
Method: (§1) The in vitro migration assay used in these studies is a modified version of the method described by Ashton et al (1999). HMEC-1 were plated into individual chambers on a glass slide and grown to 90% confluence overnight. The medium was removed and the monolayer wounded. The monolayer was re-supplemented with fresh medium and the required volume of recombinant full length his-tagged FKBP-L protein (SEQ ID NO: 1) was added to give the required final concentration.
The monolayers were incubated for 7 hours after exposure to recombinant FKBP-L protein and then fixed in 4% PBS buffered paraformaldehyde. The extent of “wound” closure was blindly assessed microscopically by an independent investigator and quantified using a calibrated eyepiece graticule (1 mm/100 μm graduation) at 20× magnification (Olympus BX 50). The extent of closure in the FKBP-L treated slides was compared to time matched sham treated controls and the % inhibition of wound closure compared to time matched controls calculated.
The following studies were performed to determine the effect of a full length His-tagged recombinant FKBP-L protein on the wound closure assay measured as a function of time. Again, the in vitro migration assay used in these studies is a modified version of the method described by Ashton et al (1999). HMEC-1 were plated into individual chambers on a glass slide and grown to 90% confluence overnight. The medium was removed and the monolayer wounded. The monolayer was re-supplemented with fresh medium and the required volume of full length his-tagged recombinant FKBP-L (i.e., SEQ ID NO: 1) added to give the required final concentration 750 ngml^−1.
Slides were removed at fixed time points until complete closure of the wound, then fixed in 4% PBS buffered paraformaldehyde. The extent of “wound” closure was blindly assessed microscopically by an independent investigator and quantified using a calibrated eyepiece graticule (1 mm/100 μm graduation) at 20× magnification (Olympus BX 50). The extent of closure in the FKBP-L treated slides was compared to time matched sham treated controls and the % inhibition of wound closure compared to time matched controls calculated.
as §1, with “al. (1999) see supra.” for “al (1999).”, “the following peptides” for “recombinant full length his-tagged FKBP-L protein (SEQ ID NO: 1)”, “achieve a dose range from 10^−14-10^−6 M.” for “give the required final concentration.”
The monolayers were incubated for 7 h and then fixed in 4% PBS buffered paraformaldehyde. The extent of “wound” closure was blindly assessed microscopically by an independent investigator and quantified using a calibrated eyepiece graticule (1 mm/100 μm graduation) at 20× magnification (Olympus BX 50). The extent of closure in the FKBP-L treated slides was compared to time matched sham treated controls and the % inhibition of wound closure compared to time matched controls calculated.
The in vitro migration assay used in these studies is a modified version of the method described by Ashton et al. (1999) see supra. HMEC-1 were plated into individual chambers on a glass slide and grown to 90% confluence overnight. The medium was removed and the monolayers wounded. The monolayer was re-supplemented with fresh medium and the required volume of each peptide (i.e., peptides 1-17, SEQ ID NOS: 12-28; Table 4 below) was added to give the required final concentration (10^−14-10^−6 M).
The monolayers were incubated for 24 h and then fixed in 4% PBS buffered paraformaldehyde. The extent of “wound” closure was blindly assessed microscopically by an independent investigator and quantified using a calibrated eyepiece graticule (1 mm/100 μm graduation) at 20× magnification (Olympus BX 50). […]

HMEC-1 cells = experiment: MTT assay of cell viability/proliferation; settings: 24mer 10^−5-10^−10M, 1-57mer 10^−9M and 10^−10M; 24 hours and 48 hours
Method: An MTT assay was used to measure cell viability/proliferation.
An MTT assay was used to measure cell viability and/or proliferation. Briefly, HMEC-1 cells were seeded (2.5×10^3) in 96 well plates and allowed to attach for 5 h. The cells were treated with FKBP-L 24mer (SEQ ID NO: 10) (10^−5-10^−10M), 1-57mer (SEQ ID NO: 6) (10^−9M and 10^−10M) or medium (control).
Post incubation the cells were exposed to a 5 mgml^−1 solution of 3-(-4,5-dimethylthiazol-2-yl) 2,5 diphenyl tetrazolium (MTT) for 4 h. The cells were aspirated and 200 μl of DMSO added to reduce the salt and induce a colour change.

HMEC-1 [2] = type: cell-based, Human; settings: 18 h
Method: (§2) The in vitro tubule formation assay used in these studies is a modified version of the method described by Ashton et al (1999). In brief, assays were conducted using BD BioCoat™ Matrigel™ Matrix Thin Layer 24-well Multiwell Plates (BD Discovery Labware, Oxford, UK). The Matrigel™ was rehydrated with 500 μl MCDB-131 serum free medium and incubated at 37° C. for 30 minutes. Excess medium was removed and HMEC-1 were seeded at a density of 1×10^5 and the plates incubated at 37° C. under 5% CO2/95% air for 1 hour.
(§3) Increasing concentrations of the recombinant FKBP-L protein (SEQ ID NO: 1) were added to each individual well in triplicate (250-1000 ngml^−1) and the plate was incubated for a further 18 hours. The degree of tubule formation between adjacent HMEC-1 cells was assessed in each well in five fields of view, by counting the number of cell to cell contacts between different HMEC-1 cells in the designated area. An independent investigator assessed each well and the FKBP-L treated wells were compared to sham treated controls.
as §2, with “al.” for “al”, “min.” for “minutes.”, “h. Increasing concentrations of FKBP-L 24mer (SEQ ID NO: 10) and 1-57mer (SEQ ID NO: 6) from 10^−14-10^−6 M were used.” for “hour.”
as §3, with “The” for “Increasing concentrations of the recombinant FKBP-L protein (SEQ ID NO: 1) were added to each individual well in triplicate (250-1000 ngml^−1) and the”, “h.” for “hours.”

[3] = test system: DU145 human prostate tumor xenograft; experiment: prostate cancer xenograft model, intratumoral injection of plasmid complexes; type: in vivo, severe combined immunodeficient mice; settings: twice weekly
Method: Du145 (prostate carcinoma) cells were obtained from Cancer Research UK and cultured in RPMI 1640 medium (Invitrogen) supplemented with 10% foetal calf serum. All cell lines were grown as monolayers, incubated at 37° C. under 5% CO2.
The FKBP-L/pcDNA3.1 plasmid was constructed by excision of the FKBPL cDNA using BamH1 (polynucleotide SEQ ID NO:31) from pUC18 and then directional ligation of FKBP-L into the BamHI restriction site of pcDNA3.1 (Invitrogen) as described in Example 1. The endostatin plasmid (for use as a postive anti-angiogenic control) hEndo XV/pcDNA3.1, was constructed by digesting the pBLAST hENDO XV plasmid (InVivoGen) with Hpa1 (Promega) and EcoV (Invitrogen) to release the hEndo XV insert. The hEndo XV insert was ligated directionally into the ECoRV restriction site of pcDNA3.1 (Invitrogen).
Nineteen (19) male immunocompromised (severe combined immunodeficient) mice were used (Harlan). The mice were aclimatized and caged in groups of 5 or less in a barrier care facility. Du145 (prostate carcinoma) cells were cultured as previously described. Subconfluent cells were harvested and the cell concentration was adjusted to 5×10^7 cells/ml in PBS. The dorsum of each mouse was shaved. […] The tumors were measured before each treatment. Tumor volume was calculated as: 4/3 πr^3 (where r=½ GMP and GMP=^3√{square root over (Length×Breadth×Height)}).

Substance: 5′ ATG GCC AGG CTC CCG CTC 3′ (antisense ATGGCCAGGCTCCCGCTC; listed as DNA, chemistry not given here; listed as Homo sapiens) [FKBP-L anti-sense oligonucleotides]
- Fold Increase (↑) or Decrease (↓): Annexin 2 (L132 cells; decrease ↓): ↓ 1.6 Fold
- Fold Increase (↑) or Decrease (↓): CYR61 (L132 cells; decrease ↓): ↓ 2.4 Fold
- Fold Increase (↑) or Decrease (↓): Tubulin α (L132 cells; decrease ↓): ↓ 1.5 Fold
- Fold Increase (↑) or Decrease (↓): Tubulin β (L132 cells; decrease ↓): ↓ 1.5 Fold
- Fold Increase (↑) or Decrease (↓): Tubulin γ (L132 cells; decrease ↓): ↓ 1.6 Fold
- Fold Increase (↑) or Decrease (↓): MMP-like 1 (L132 cells; increase ↑): ↑ 1.5 Fold
- Fold Increase (↑) or Decrease (↓): Microtubule associated protein 1B (L132 cells; increase ↑): ↑ 1.6 Fold
- Fold Increase (↑) or Decrease (↓): PI3K (L132 cells; increase ↑): ↑ 3.1 Fold
- Fold Increase (↑) or Decrease (↓): ROCK (L132 cells; increase ↑): ↑ 1.6 Fold
- Fold Increase (↑) or Decrease (↓): Rho GTPase activating protein- (L132 cells; increase ↑): ↑ 2.0 Fold
- Fold Increase (↑) or Decrease (↓): oligophrenin 1 (L132 cells; increase ↑): ↑ 1.7 Fold

Substance: METPPVNTIGEKDTSQPQQEWEKNLRENLDSVIQIRQQPRDPPTETLELEVSPDPAS [FKBP-L 1-57mer]
- IC50 (rat aortic ring): 0.53 nM
- potency compared with the full length recombinant protein on a mole/mole basis (HMEC-1 [1]; 7 h): increased potency
- effect on proliferation of HMEC-1 cells compared to time-matched controls (HMEC-1 cells): neither of the peptides had any significant effect
- EC50 (HMEC-1 [2]): 0.0007 nM

Substance: RQQPRDPPTETLELEVSPD-OH (listed as Homo sapiens) [Pep 12]
- activity relative to the FKBP-L 24mer (HMEC-1 [1]; 24 h): about the same as the FKBP-L 24mer

Substance: endostatin
- tumor appearance [3]: evidence of a necrotic center

— patent publication US10577406B2, “FKBP-L polypeptides and uses in angiogenesis-mediated disorders” (ALMAC DISCOVERY LIMITED, priority 2006, dated 2020)
